According to patent publication US20040122106A1, “Tablets quickly disintegrating in oral cavity” (priority 2001, published 2004):
Values after ≈ are worked out from the molar mass of the structure shown. Structures can show the parent of a compound that is named as a salt.

assay: physchem; settings: 20 °C, water, thermodynamic from solid
Protocol: The water solubility of the pharmacologically active ingredient was determined by the method described in the Japanese Pharmacopoeia, the General Rule 13, Paragraph 23.

Row | Structure (SMILES) | solubility at 30 min [mg/mL]
1 | CN(C)C(=O)C(CCN1CCC(O)(c2ccc(Cl)cc2)CC1)(c1ccccc1)c1ccccc1 [loperamide hydrochloride] | ~1

same assay, conditions: water, 20 °C, thermodynamic from solid

Row | Structure (SMILES) | solubility at 30 min [mg/mL]
2 | C[C@H](CS)C(=O)N1CCC[C@H]1C(=O)O [captopril] | ~60 (≈ 276000 µM)
3 | O=c1[nH]c2ccccc2n1CCCN1CCC(n2c(=O)[nH]c3cc(Cl)ccc32)CC1 [domperidone] | ~0.002 (≈ 4.7 µM)

The next lines start with the values.

Row | solubility at 30 min [mg/mL] | Structure (SMILES)
4 | ~20 | Nc1c(Br)cc(Br)cc1CN[C@H]1CC[C@H](O)CC1 [ambroxol hydrochloride]
5 | ~0.7 (≈ 2070 µM) | NC(N)=Nc1nc(CSCCC(N)=NS(N)(=O)=O)cs1 [famotidine]
6 | ~100 | COc1ccc(OC)c(C(O)CNC(=O)CN)c1 (stereo not drawn) [midodrine hydrochloride]
